In data set [1] the test system is houseflies. Description: Dorsal application of Abamectin and nicotinic acid derivatives, mortality (Example 21). Particulars: combination of Abamectin and the nicotinic acid derivative; 2 μl dorsally; Colby. It is filed as in vivo, housefly. Here is the method: Various solutions of nicotinic acid derivatives, Abamectin and combinations of nicotinic acid derivatives and Abamectin were applied dorsally on houseflies. On each housefly 2 μl test solution was applied. The mortality of the treatments was recorded. The mortality results were analysed according to Colby.

For another data set, the system named is Tetranychus urticae. The data set can be described thus: Spray test of Spinosad and tocopheryl acetate on bean plants (Vicia faba), leaf protection (Example 13). It is filed as in vivo. Particulars: single active, leaf protection 7 days after mites placed, average of four evaluations. The text has this: Using the alternative method for determining synergism the effect of each mixture of Spinosad and tocopheryl acetate is compared with the effect of the same rate of each of the active ingredients used alone.

Another data set has as its system Spodoptera exiqua larvae. Description: Topical application of Emamectin-benzoate/tocopherol acetone solutions, LD50 (Example 9). It counts as in vivo. The conditions noted are these: topical 1 μl acetone solution; mortality recorded 48 h after applying. Here is the method:
A range of Emamectin-benzoate and tocopherol, all-rac alpha, solutions with varying concentrations of each compound in acetone was prepared. Mixed solutions of Emamectin-benzoate and tocopherol, all-rac alpha, were also prepared. Larvae of Spodoptera exiqua were treated topically with either an Emamectin-benzoate acetone solution (1 μl), a tocopherol acetone solution (1 μl) or a solution containing both of the two compounds in the ratios 1:1 and 1:3 (1 μl). Log dose-mortality curves were constructed for the Emamectin-benzoate solutions, the tocopherol solutions and the mixtures. […] A comparison was made between the actual observed LD50 and the expected value, based on the Wadley method as described previously.

In data set [2] the test system is nymphs of Dysdercus cingulatus. Description: Dorsal application of Abamectin and Vitamin E derivatives, mortality (Example 19). It counts as in vivo. The conditions noted are these: combination of Abamectin and the Vitamin E derivative; 2 μl dorsally; Colby. Here is the method: Various solutions of Vitamin E derivatives, Abamectin and combinations of Vitamin E derivatives and Abamectin were applied dorsally on nymphs of Dysdercus cingulatus. On each Dysdercus cingulatus 2 μl test solution was applied. The mortality of the treatments was recorded. The mortality results were analysed according to Colby. The synergistic activity of Abamectin and various Vitamin E derivatives on Dysdercus cingulatus is illustrated in table 19.

For data set [3], the system named is houseflies. Description: Dorsal application of Abamectin and Vitamin E derivatives, mortality (Example 18). Particulars: combination of Abamectin and the Vitamin E derivative; 2 μl dorsally; Colby. It counts as in vivo, housefly. Here is the method:
Various solutions of Vitamin E derivatives, Abamectin and combinations of Vitamin E derivatives and Abamectin were applied dorsally on houseflies. On each housefly 2 μl test solution was applied. The mortality of the treatments was recorded. The mortality results were analysed according to Colby. The synergistic activity of Abamectin and various Vitamin E derivatives on houseflies is illustrated in table 18.

Data set [4] has as its system Teladorsagia (Ostertagia) circumcincta. The data set can be described thus: Larvae feeding inhibition study (Example 23). The conditions noted are these: mixtures: based on concentration of IVM or DOR; for LFI-50 T. cir.: larvae feeding inhibition 50%; for LFI-96 T. cir.: larvae feeding inhibition 96%; for LFI-99 T. cir.: larvae feeding inhibition 99%. An excerpt:
(§1) The calculations done according to Wadley and shown in Table 23 indicate that synergistic action of Ivermectin and tocopheryl acetate and Doramectin and tocopheryl acetate was pre-sent in the larvae feed inhibition study. The synergistic action of Ivermectin and tocepheryl acetate in the H. contortus experiment is of particular interest because the H. contortus iso-late used was Ivermectin resistant.

A further data set relates to Haemonchus contortus. The data set can be described thus: Larvae feeding inhibition study (Example 23). Particulars: Ivermectin resistant isolate, mixtures: based on concentration of IVM or DOR; for LFI-50 H. con.: larvae feeding inhibition 50%; for LFI-96 H. con.: larvae feeding inhibition 96%; for LFI-99 H. con.: larvae feeding inhibition 99%.
Excerpt: as §1

For data set [5], the system named is Trichostrongylus colubriformis. Description: Larvae feeding inhibition study (Example 23). The conditions noted are these: mixtures: based on concentration of IVM or DOR; for LFI-50 T. col.: larvae feeding inhibition 50%; for LFI-96 T. col.: larvae feeding inhibition 96%; for LFI-99 T. col.: larvae feeding inhibition 99%.
Excerpt: as §1

In data set [6] the test system is Dysdercus cingulatus nymphs. It is filed as in vivo. Here is the method: A range of Ivermectin solutions in acetone was prepared. Similarly, a range of tocopherol solutions was prepared. Mixed solutions of Ivermectin and tocopherol in acetone were prepared as well. Nymphs of Dysdercus cingulatus were treated topically with either an Ivermectin acetone solution (2 μl), a tocopherol acetone solution (2 μl) or mixed solutions (2 μl).
The mortality was recorded after 24 and 48 h. The results were evaluated by the Colby-method.

Data set [7] concerns Dysdercus cingulatus nymphs. The data set can be described thus: Topical application of Abamectin/tocopherol acetone solutions, LD50 (Example 5). Particulars: sum of Abamectin and tocopherol; mortality recorded 48 h after applying. It is filed as in vivo. Here is the method:
A range of Abamectin solutions in acetone was prepared. Similarly, a range of tocopherol, all-rac alpha, solutions was prepared. Mixed solutions of Abamectin and tocopherol in acetone were prepared as well. Nymphs of Dysdercus cingulatus were treated topically with either an Abamectin acetone solution (2 μl), a tocopherol acetone solution (2 μl) or mixed solutions (2 μl). The Dysdercus cingulatus mortality was recorded 48 h after applying the products.
Log dose-mortality curves were constructed for the Abamectin and the tocopherol treatments. LD50 values based on the sum of Abamectin and tocopherol contents (ng active ingredient(s) per nymph) were calculated.
From the observed LD50 values for Abamectin and tocopherol expected LD50 values for the mixtures were calculated according to Wadley's formula.

Data set [8] concerns Dysdercus cingulatus nymphs. It counts as in vivo. The conditions noted are these: 2000 ng applied on each nymph; 24 h after applying. Here is the method: A range of Abamectin solutions in acetone was prepared. Similarly, a range of tocopherol, all-rac alpha, solutions in acetone was prepared. Abamectin solution (2 μl), tocopherol solution (2 μl) or both were applied topically on nymphs of Dysdercus cingulatus. Abamectin was applied dorsally while tocopherol was applied ventrally. […] The mortality of the nymphs was recorded 24 h after applying the solutions.

Data set [9] has as its system Dysdercus cingulatus nymphs. It counts as in vivo. Here is the method: Abamectin, Ivermectin and tocopherol solutions in acetone were prepared. Mixed solutions of either Abamectin or Ivermectin and tocopherol were also prepared. Nymphs of Dysdercus cingulatus were treated topically with Abamectin acetone solution (20,000 ng/nymph), Ivermectin acetone solution (20,000 ng/nymph), a tocopherol acetone solution (20,000 ng/nymph) or a solution containing Abamectin and tocopherol or Ivermectin and tocopherol in the ratio 1:3 (20,000 ng total/nymph). The solutions were applied dorsally on the nymphs.
The Dysdercus cingulatus mortality was followed over time and recorded. Log time-mortality curves were constructed for the Abamectin and Ivermectin solutions and for the mixtures with tocopherol. An LT50 value was calculated for each application.
The source holds these as a separate data set.

Data set [10] concerns cat fleas (Ctenocephalides felis felis) adult. The data set can be described thus: In vitro contact test on adult fleas (Example 25). Particulars: inactivation of the fleas; mixture: based on the concentration of Selamectin.
Data set [11] has as its system cat fleas (Ctenocephalides felis felis) larvae. The data set can be described thus: In vitro larvae test based on systemic activity (Example 25). Particulars: inactivation of the fleas; mixture: based on the concentration of Selamectin.
Data set [12] has the same test system. Description: In vitro contact test on flea larvae (Example 25). Particulars: inactivation of the fleas; mixture: based on the concentration of Selamectin.
Data set [13] has as its system Onchocerca lienalis microfilariae. Description: Microfilariae mobility test (Example 26). The conditions noted are these: mobility of the microfilariae; read-out: EC50 value for Ivermectin.
[14] abbreviates: 30 ng applied per nymph, after 24 h.
The mark [15] stands for this setting: 30 ng applied per nymph, after 48 h.
Where [16] appears, read: 100 ng applied per nymph, after 24 h.
[17] abbreviates: 100 ng applied per nymph, after 48 h.
Where [18] appears, read: 300 ng applied per nymph, after 24 h.
[19] abbreviates: 300 ng applied per nymph, after 48 h.

Where two headings read alike, the source gives them in different places. Where only a bound is given, the exact number is not on record here.

As to `O=C(O)c1cccnc1` [Nicotinic acid], in the data set on houseflies [1], the “R (obs mortality/exp mortality)” value is 1.4.
For the molecule Spinosad, the “% protection” value in the data set on Tetranychus urticae (100 g/ha) and with Tetranychus urticae (300 g/ha) was 5% in each case.
In the case of Emamectin-benzoate, the LD50obs in the data set on Spodoptera exiqua larvae is reported as 4.30 ng AI(s)/larvae.
Take `Cc1c(C)c2c(c(C)c1OC(=O)c1cccnc1)CC[C@@](C)(CCC[C@H](C)CCC[C@H](C)CCCC(C)C)O2` [(+)alpha-tocopheryl nicotinate]: the “R (obs mortality/exp mortality)” value in data set [2] is reported as 1.2; in the data set on houseflies [1] it was 3.0; in the data set on houseflies [3] it was 3.0.
In the case of `Cc1cc(O)cc2c1O[C@](C)(CCC[C@H](C)CCC[C@H](C)CCCC(C)C)CC2` [(+)delta-tocopherol], in data set [2], the “R (obs mortality/exp mortality)” value turned out to be 1.6.
Consider `Cc1c(C)c2c(c(C)c1O)CC[C@@](C)(CCC[C@H](C)CCC[C@H](C)CCCC(C)C)O2` [(+)alpha-tocopherol], for which the “R (obs mortality/exp mortality)” value turned out to be 1.1 in [2] and 2.0 in the data set on houseflies [3].
For `Cc1c(C)c2c(c(C)c1OC(=O)CCC(=O)O)CC[C@@](C)(CCC[C@H](C)CCC[C@H](C)CCCC(C)C)O2` [(+)alpha-tocopheryl succinate], the “R (obs mortality/exp mortality)” value in [2] came out at 1.3.
As for `CCOC(=O)c1cccnc1` [Ethyl nicotinate], the “R (obs mortality/exp mortality)” value in the data set on houseflies [1] was 1.4.
On to `CO[C@H]1C[C@H](O[C@H]2[C@H](C)O[C@@H](O[C@@H]3/C(C)=C/C[C@@H]4C[C@@H](C[C@]5(C=C[C@H](C)[C@@H](C6CCCCC6)O5)O4)OC(=O)[C@@H]4C=C(C)[C@@H](O)[C@H]5OC/C(=C\C=C\[C@@H]3C)[C@]54O)C[C@@H]2OC)O[C@@H](C)[C@@H]1O` [DOR, Doramectin], for which, in data set [4], the “LFI-50 T. cir.” value is 6.12 ppb, the “LFI-96 T. cir.” value is reported as 13.14 ppb and the “LFI-99 T. cir.” value was 18.52 ppb. In addition, in the data set with Haemonchus contortus, the “LFI-50 H. con.” value was found to be 2.63 ppb, the “LFI-96 H. con.” value worked out at 10.37 ppb and the “LFI-99 H. con.” value is 16.30 ppb. In data set [5], the “LFI-50 T. col.” value was found to be 2.57 ppb, the “LFI-96 T. col.” value amounted to 8.04 ppb and the “LFI-99 T. col.” value was 12.22 ppb.
`Cc1c(C)c2c(c(C)c1O)CCC(C)(C(=O)O)O2` (centres unmarked) [Trolox, 6-hydroxy-2,5,7,8-tetramethylchroman-2-carboxylic acid]: in the data set with houseflies [3], the “R (obs mortality/exp mortality)” value is listed as 1.3.
For `CC(=O)Oc1c(C)c(C)c2c(c1C)CC[C@@](C)(CCC[C@H](C)CCC[C@H](C)CCCC(C)C)O2` [(+)alpha-tocopheryl acetate], the “R (obs mortality/exp mortality)” value turned out to be 1.2 in [2] and 1.9 in the data set on houseflies [3].
Regarding `Cc1c(C)c2c(c(C)c1O)CCC(C)(CCCC(C)CCCC(C)CCCC(C)C)O2` (racemic) [tocopherol, tocopherol, all-rac alpha], the “Mortality (%) for each ingredient” value in [6] (setting [14]), in data set [6] (setting [15]), in data set [6] (setting [16]), in data set [6] (setting [17]), in data set [6] (setting [18]) and in data set [6] (setting [19]) was 0% in each case. Also, the values for the LD50obs (in data set [7]; in the data set with Spodoptera exiqua larvae) were >20,000 ng tocopherol ng AI(s) per nymph and >20000 ng AI(s)/larvae, respectively. The “% Mortality for each ingredient” value in data set [8] turned out to be 0%. Besides, the “Mortality during the test period” value in [9] (20,000 ng tocopherol per nymph, 24 h test period) is “did not die”.
In the case of `CO[C@H]1C[C@H](O[C@@H]2/C(C)=C/C[C@@H]3C[C@@H](C[C@]4(CC[C@H](C)[C@@H](C5CCCCC5)O4)O3)OC(=O)[C@@H]3C=C(C)/C(=N/O)[C@H]4OC/C(=C\C=C\[C@@H]2C)[C@]43O)O[C@@H](C)[C@@H]1O` [Selamectin], the “ED50 Adult contact” value in data set [10] is 24330 ppm. Further, the “ED50 Larvae systemic” value in [11] came out at 1.5 ppm. The “ED50 Larvae contact” value in [12] stood at 31 ppm.
For `COC(=O)c1cccnc1` [Methyl nicotinate], the “R (obs mortality/exp mortality)” value with houseflies [1] was determined as 3.0.
Same read-out and setting: under `O=C(O)c1ccncc1` [Isonicotinic acid] stands more than 2.
The EC50 is the concentration giving half of the maximal effect. Take Ivermectin: in data set [4], the “LFI-50 T. cir.” value came to 6.37 ppb, the “LFI-96 T. cir.” value was found to be 12.59 ppb and the “LFI-99 T. cir.” value worked out at 17.35 ppb. Moreover, in the data set with Haemonchus contortus, the “LFI-50 H. con.” value came to 6.10 ppb, the “LFI-96 H. con.” value was determined as 32.12 ppb and the “LFI-99 H. con.” value came out at 40.68 ppb. For the same molecule, in data set [5], the “LFI-50 T. col.” value worked out at 2.01 ppb, the “LFI-96 T. col.” value is recorded as 8.63 ppb and the “LFI-99 T. col.” value is recorded as 10.81 ppb. Besides, the “Mortality (%) for each ingredient” value in data set [6] (setting [14]) is 8%. For the same molecule, in [6] (setting [15]), the “Mortality (%) for each ingredient” value is given as 27%. Moreover, in data set [6] (setting [16]), the “Mortality (%) for each ingredient” value worked out at 33%. The “Mortality (%) for each ingredient” value in data set [6] (setting [17]) turned out to be 65%. Moreover, the “Mortality (%) for each ingredient” value in data set [6] (setting [18]) worked out at 63%. In addition, the “Mortality (%) for each ingredient” value in data set [6] (setting [19]) was 86%. Further, the EC50 in data set [13] was determined as 5.8 µM. This molecule also came in with an LT50 in data set [9] (in total 20,000 ng/nymph applied dorsally, two replicates of ten nymphs) of 9.1 h.

(Values after patent US20090111759A1, “Synergistic Combination of Glutamate-and Gaba-Gated Chloride Agonist Pesticide and at Least One Vitamin E, Niacin, or Derivatives Thereof” (priority 2006, published 2009).)
